Reference: PubChem BioAssay AID1918932 (Molecular Pharmacology Branch, DTP, NCI, 2023)

Tested on: 171881-019-R-J1-PDC complex spheroid viability
Assay: Anticancer human tumor 171881-019-R-J1-PDC patient-derived invasive breast carcinoma cell line growth inhibition
Conditions: for IC50: curve of first compound; for viability, T/C: stronger effect = lower value
In short: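 Multicellular complex spheroids of tumor cells with human endothelial cells (HUVEC) and mesenchymal stem cells; the LSD1 inhibitor iadademstat was combined with standard-of-care or investigational agents. Top concentration at or near clinical Cmax, half-log dilutions; final DMSO ≤0.25%.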

[1] = second compound 0.1 µM, first compound 0.0316 µM
[2] = second compound 0.1 µM, first compound 0.1 µM
[3] = second compound 0.1 µM, first compound 0.316 µM
[4] = second compound 0.1 µM, first compound 1 µM
[5] = second compound 0.316 µM, first compound 0.0316 µM
[6] = second compound 0.316 µM, first compound 0.1 µM
[7] = second compound 0.316 µM, first compound 0.316 µM
[8] = second compound 0.316 µM, first compound 1 µM
[9] = second compound 1 µM, first compound 0.0316 µM
[10] = second compound 1 µM, first compound 0.1 µM
[11] = second compound 1 µM, first compound 0.316 µM
[12] = second compound 1 µM, first compound 1 µM
[13] = second compound 3.16 µM, first compound 0.0316 µM
[14] = second compound 3.16 µM, first compound 0.1 µM
[15] = second compound 3.16 µM, first compound 0.316 µM
[16] = second compound 3.16 µM, first compound 1 µM
[17] = second compound 10 µM, first compound 0.0316 µM
[18] = second compound 10 µM, first compound 0.1 µM
[19] = second compound 10 µM, first compound 0.316 µM
[20] = second compound 10 µM, first compound 1 µM
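Note: spheroids exposed to agents for 7 days after 3 days growth.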

Compound | IC50 (second compound 0.1 µM) [µM] | IC50 (second compound 0.316 µM) [µM] | IC50 (second compound 1 µM) [µM] | IC50 (second compound 3.16 µM) [µM] | IC50 (second compound 10 µM) [µM] | viability, T/C [1] [%] | viability, T/C [2] [%] | viability, T/C [3] [%] | viability, T/C [4] [%] | viability, T/C [5] [%] | viability, T/C [6] [%] | viability, T/C [7] [%] | viability, T/C [8] [%] | viability, T/C [9] [%] | viability, T/C [10] [%] | viability, T/C [11] [%] | viability, T/C [12] [%] | viability, T/C [13] [%] | viability, T/C [14] [%] | viability, T/C [15] [%] | further results
CC(C)c1c(-c2ccccc2)nc2c(C#N)c[nH]n2c1=O + NC1CCC(NC2CC2c2ccccc2)CC1 | > 10 | > 10 | > 10 | > 10 | > 10 | 89.7 | 75.8 | 82.7 | 92.2 | 90.7 | 93.3 | 82.6 | 96.1 | 93.8 | 81.3 | 85.5 | 100 | 96.1 | 90.5 | 94.3 | viability, T/C (second compound 0.1 µM, first compound 3.16 µM): 82.9%; viability, T/C (second compound 0.1 µM, first compound 10 µM): 97.8%; viability, T/C (second compound 0.316 µM, first compound 3.16 µM): 94%; viability, T/C (second compound 0.316 µM, first compound 10 µM): 91.6%; viability, T/C (second compound 1 µM, first compound 3.16 µM): 81.5%; viability, T/C (second compound 1 µM, first compound 10 µM): 91.2%; viability, T/C [16]: 80.3%; viability, T/C (second compound 3.16 µM, first compound 3.16 µM): 101%; viability, T/C (second compound 3.16 µM, first compound 10 µM): 97.3%; viability, T/C [17]: 87.2%; viability, T/C [18]: 90.4%; viability, T/C [19]: 77.3%; viability, T/C [20]: 92.6%; viability, T/C (second compound 10 µM, first compound 3.16 µM): 93.4%; viability, T/C (second compound 10 µM, first compound 10 µM): 90.4%
O=C(C=Cn1cnc(-c2cc(C(F)(F)F)cc(C(F)(F)F)c2)n1)NNc1cnccn1 + NC1CCC(NC2CC2c2ccccc2)CC1 | < 0.00316 | < 0.00316 | < 0.00316 | < 0.00316 | < 0.00316 | 5.39 | 2.15 | 2.24 | 2.08 | 6.07 | 2.35 | 6.21 | 2.25 | 6.8 | 2.59 | 2.63 | 4.14 | 6.64 | 2.73 | 2.91 | viability, T/C (second compound 0.1 µM, first compound 0.00316 µM): 20%; viability, T/C (second compound 0.1 µM, first compound 0.01 µM): 14.8%; viability, T/C (second compound 0.316 µM, first compound 0.00316 µM): 20.9%; viability, T/C (second compound 0.316 µM, first compound 0.01 µM): 14.6%; viability, T/C (second compound 1 µM, first compound 0.00316 µM): 22.7%; viability, T/C (second compound 1 µM, first compound 0.01 µM): 16.1%; viability, T/C (second compound 3.16 µM, first compound 0.00316 µM): 24.3%; viability, T/C (second compound 3.16 µM, first compound 0.01 µM): 16.4%; viability, T/C [16]: 2.78%; viability, T/C (second compound 10 µM, first compound 0.00316 µM): 24.7%; viability, T/C (second compound 10 µM, first compound 0.01 µM): 17.3%; viability, T/C [17]: 7.11%; viability, T/C [18]: 2.96%; viability, T/C [19]: 3.51%; viability, T/C [20]: 3.29%
